From patent US11066425B1, “Oxo-substituted compound” (SUMITOMO DAINIPPON PHARMA CO., LTD., priority 2018, dated 2021)
Counter-ions that a name gives are not always drawn.

System: β-lactamase producing bacteria
Assay: Test Example 1: MIC of meropenem (MEPM) combined with test compound at fixed 4 μg/mL, broth microdilution
Format: cell-based
Conditions: relative to MEPM alone
Experimental: Test Example 1: Evaluation of Minimum Inhibitory Concentration (MIC) of MEPM Against β-Lactamase Producing Bacteria
To evaluate the β-lactamase inhibitory activity of test compounds, the effect of combination of a test compound and a β-lactam agent against β-lactamase producing bacteria was evaluated. Meropenem (MEPM) was used as a β-lactam antimicrobial agent. The minimum inhibitory concentration (MIC) of MEPM against β-lactamase producing bacteria when a test compound was added at a fixed concentration (4 μg/mL) was measured by broth microdilution method (common ratio: 2). MIC of MEPM decreasing to less than 1/32 in combination with a test compound is indicated by A, decreasing from 1/32 to 1/16 is indicated by B, decreasing from ⅛ to ¼ is indicated by C, and decreasing to ½ or others are indicated by D. “-” represents untested cases.

| Compound | Decrease of MIC of MEPM in combination with a test compound, E. coli ATCC BAA-2340 (KPC) | Decrease of MIC of MEPM in combination with a test compound, K. pneumoniae ATCC BAA-2344 (KPC) | Decrease of MIC of MEPM in combination with a test compound, K. pneumoniae ATCC BAA-2524 (OXA-48) |
| --- | --- | --- | --- |
| CC(=O)N1CC(Oc2ccc3c(c2C(=O)O)OB(O)CC3)C1 [Example 1, 7-[(1-acetylazetidin-3-yl)oxy]-2-hydroxy-3,4-dihydro-2H-1,2-benzoxaborinine-8-carboxylic Acid] | A (MIC of MEPM decreasing to less than 1/32 in combination with a test compound is indicated by A) | A (MIC of MEPM decreasing to less than 1/32 in combination with a test compound is indicated by A) | B (decreasing from 1/32 to 1/16 is indicated by B) |
| O=C(O)c1c(OC2CN(C(=O)Cc3cnc[nH]3)C2)ccc2c1OB(O)CC2 [Example 2, 2-hydroxy-7-({1-[(1H-imidazol-5-yl)acetyl]azetidin-3-yl}oxy)-3,4-dihydro-2H-1,2-benzoxaborinine-8-carboxylic Acid Hydrochloride] | A (MIC of MEPM decreasing to less than 1/32 in combination with a test compound is indicated by A) | A (MIC of MEPM decreasing to less than 1/32 in combination with a test compound is indicated by A) | B (decreasing from 1/32 to 1/16 is indicated by B) |
| CS(=O)(=O)N1CC(Oc2ccc3c(c2C(=O)O)OB(O)CC3)C1 [Example 3, 2-hydroxy-7-{[1-(methanesulfonyl)azetidin-3-yl]oxy}-3,4-dihydro-2H-1,2-benzoxaborinine-8-carboxylic] | A (MIC of MEPM decreasing to less than 1/32 in combination with a test compound is indicated by A) | A (MIC of MEPM decreasing to less than 1/32 in combination with a test compound is indicated by A) | B (decreasing from 1/32 to 1/16 is indicated by B) |
| N[C@@H](C(=O)N1CC(Oc2ccc3c(c2C(=O)O)O[B-](O)(O)CC3)C1)c1ccc(O)cc1 [Example 4, 8-({1-[(2R)-2-amino-2-(4-hydroxyphenyl)acetyl]azetidin-3-yl}oxy)-4,4-dihydroxy-5-oxa-4-boranuidabicyclo[4.4.0]deca-l(6),7,9-triene-7-carboxylic Acid Disodium Salt] | A (MIC of MEPM decreasing to less than 1/32 in combination with a test compound is indicated by A) | A (MIC of MEPM decreasing to less than 1/32 in combination with a test compound is indicated by A) | A (MIC of MEPM decreasing to less than 1/32 in combination with a test compound is indicated by A) |
| CON=C(C(=O)N1CC(Oc2ccc3c(c2C(=O)O)OB(O)CC3)C1)c1csc(N)n1 [Example 5, 7-({1-[(2-amino-1,3-thiazol-4-yl)(methoxyimino)acetyl]azetidin-3-yl}oxy)-2-hydroxy-3,4-dihydro-2H-1,2-benzoxaborinine-8-carboxylic acid] | A (MIC of MEPM decreasing to less than 1/32 in combination with a test compound is indicated by A) | B (decreasing from 1/32 to 1/16 is indicated by B) | C (decreasing from ⅛ to ¼ is indicated by C) |
| Cl.O=C(O)c1c(OC2CN(C(=O)c3ccccn3)C2)ccc2c1OB(O)CC2 [Example 6, 2-hydroxy-7-{[1-(pyridine-2-carbonyl)azetidin-3-yl]oxy}-3,4-dihydro-2H-1,2-benzoxaborinine-8-carboxylic acid hydrochloride] | A (MIC of MEPM decreasing to less than 1/32 in combination with a test compound is indicated by A) | A (MIC of MEPM decreasing to less than 1/32 in combination with a test compound is indicated by A) | B (decreasing from 1/32 to 1/16 is indicated by B) |
| CSCC(=O)N1CC(Oc2ccc3c(c2C(=O)O)O[B-](O)(O)CC3)C1 [Example 7, 4,4-dihydroxy-8-({1-[(methylsulfanyl)acetyl]azetidin-3-yl}oxy)-5-oxa-4-boranuidabicyclo[4.4.0]deca-l(6),7,9-triene-7-carboxylic acid disodium salt] | A (MIC of MEPM decreasing to less than 1/32 in combination with a test compound is indicated by A) | A (MIC of MEPM decreasing to less than 1/32 in combination with a test compound is indicated by A) | B (decreasing from 1/32 to 1/16 is indicated by B) |
| O=C(O)c1c(OC2CN(C(=O)c3nc[nH]n3)C2)ccc2c1O[B-](O)(O)CC2 [Example 8, 4,4-dihydroxy-8-{[1-(1H-1,2,4-triazole-3-carbonyl)azetidin-3-yl]oxy}-5-oxa-4-boranuidabicyclo[4.4.0]deca-l(6),7,9-triene-7-carboxylic acid disodium salt] | A (MIC of MEPM decreasing to less than 1/32 in combination with a test compound is indicated by A) | A (MIC of MEPM decreasing to less than 1/32 in combination with a test compound is indicated by A) | B (decreasing from 1/32 to 1/16 is indicated by B) |
| O=C(O)c1c(OC2CN(C(=O)c3cccc[n+]3[O-])C2)ccc2c1O[B-](O)(O)CC2 [Example 9, 4,4-dihydroxy-8-{[1-(1-oxido-2-pyridinylcarbonyl)azetidin-3-yl]oxy}-5-oxa-4-boranuidabicyclo[4.4.0]deca-l(6),7,9-triene-7-carboxylic acid disodium salt] | A (MIC of MEPM decreasing to less than 1/32 in combination with a test compound is indicated by A) | A (MIC of MEPM decreasing to less than 1/32 in combination with a test compound is indicated by A) | A (MIC of MEPM decreasing to less than 1/32 in combination with a test compound is indicated by A) |
| N[C@@H](C(=O)N1CC(Oc2ccc3c(c2C(=O)O)O[B-](O)(O)CC3)C1)c1ccccc1 [Example 10, 8-({1-[(2R)-2-amino-2-phenylacetyl]azetidin-3-yl}oxy)-4,4-dihydroxy-5-oxa-4-boranuidabicyclo[4.4.0]deca-l(6),7,9-triene-7-carboxylic acid disodium salt] | A (MIC of MEPM decreasing to less than 1/32 in combination with a test compound is indicated by A) | A (MIC of MEPM decreasing to less than 1/32 in combination with a test compound is indicated by A) | B (decreasing from 1/32 to 1/16 is indicated by B) |
| O=C(O)c1c(OC2CN(C(=O)c3ccccc3)C2)ccc2c1O[B-](O)(O)CC2 [Example 11, 8-[(1-benzoylazetidin-3-yl)oxy]-4,4-dihydroxy-5-oxa-4-boranuidabicyclo[4.4.0]deca-l(6),7,9-triene-7-carboxylic acid disodium salt] | A (MIC of MEPM decreasing to less than 1/32 in combination with a test compound is indicated by A) | B (decreasing from 1/32 to 1/16 is indicated by B) | B (decreasing from 1/32 to 1/16 is indicated by B) |
| O=C(O)c1c(OC2CN(C(=O)c3cccnc3)C2)ccc2c1O[B-](O)(O)CC2 [Example 12, 4,4-dihydroxy-8-{[1-(pyridine-3-carbonyl)azetidin-3-yl]oxy}-5-oxa-4-boranuidabicyclo[4.4.0]deca-l(6),7,9-triene-7-carboxylic acid disodium salt] | A (MIC of MEPM decreasing to less than 1/32 in combination with a test compound is indicated by A) | A (MIC of MEPM decreasing to less than 1/32 in combination with a test compound is indicated by A) | B (decreasing from 1/32 to 1/16 is indicated by B) |
| O=C(O)c1c(OC2CN(C(=O)Cc3ccccn3)C2)ccc2c1O[B-](O)(O)CC2 [Example 13, 4,4-dihydroxy-8-({1-[(pyridin-2-yl)acetyl]azetidin-3-yl}oxy)-5-oxa-4-boranuidabicyclo[4.4.0]deca-l(6),7,9-triene-7-carboxylic acid disodium salt] | A (MIC of MEPM decreasing to less than 1/32 in combination with a test compound is indicated by A) | A (MIC of MEPM decreasing to less than 1/32 in combination with a test compound is indicated by A) | B (decreasing from 1/32 to 1/16 is indicated by B) |
